Source: US7803836B2, “Aminophenylsulfonamide derivatives as HIV protease inhibitor” (priority 2005, dated 2010)
pEC50: −log10 of the molar value. Like-named read-outs stand apart in the source and are kept apart here.

Key:
Test in all cases: microbe, parasite or virus in culture
Format in all cases: cell-based
[1] = test system: wild type laboratory HIV strain (WT IIIB-2-001); conditions: Human immunodeficiency virus 1, IIIB, 72 h, read-out: Virus Strains WT-IIIB-2-001
Experimental: (§1) The compounds were tested in a cellular assay using the MT4-LTR-EGFP cells for anti-viral activity. […] Because of the increasing emergence of drug resistant HIV strains, the present compounds were tested for their potency against clinically isolated HIV strains harboring several mutations. […] The viral strains A, B, C and D contain mutations as indicated below in Table 3.
(§2) The cellular assay was performed according to the following procedure. HIV- or mock-infected MT4-LTR-EGFP cells were incubated for three days in the presence of various concentrations of the compounds according to the invention. Upon infection, the viral tat protein activates the GFP reporter. At the end of the incubation period, the GFP signal was measured. […] The inhibitory activity of the compound was monitored on the virus-infected cells and was expressed as EC50. These values represent the amount of the compound required to protect 50% of the cells from virus infection.

[2] = test system: clinically isolated HIV strain D (D-2-001); conditions: for pEC50: Human immunodeficiency virus 1, 72 h, read-out: Virus Strains D-2-001
Experimental: as §1, §2

[3] = test system: clinically isolated HIV strain A (A-2-001); conditions: for pEC50: Human immunodeficiency virus 1, 72 h, read-out: Virus Strains A-2-001
Experimental: as §1, §2

[4] = test system: clinically isolated HIV strain B (B-2-001); conditions: for pEC50: Human immunodeficiency virus 1, 72 h, read-out: Virus Strains B-2-001
Experimental: as §1, §2

[5] = test system: clinically isolated HIV strain C (C-2-001); conditions: for pEC50: Human immunodeficiency virus 1, 72 h, read-out: Virus Strains C-2-001
Experimental: as §1, §2

SMILES | pEC50 [1] | pEC50 [2] | pEC50 [3] | pEC50 [4] | pEC50 [5] | EC50 ([2]; Human immunodeficiency virus 1, read-out: pEC50-D (converted)) | EC50 ([3]; Human immunodeficiency virus 1, read-out: pEC50-A (converted)) | EC50 ([4]; Human immunodeficiency virus 1, read-out: pEC50-B (converted)) | EC50 ([5]; Human immunodeficiency virus 1, read-out: pEC50-C (converted))
CC(C)CN(C[C@@H](O)[C@H](Cc1ccccc1)NC(=O)O[C@H]1CO[C@H]2OCC[C@H]21)S(=O)(=O)c1ccc(N)c(N[C@H]2CCN(C3CCCC3)C2)c1 (stereo in doubt) [Compound 79, (3-{[4-amino-3-(1-cyclopentyl-pyrrolidin-3-ylamino)-benzene-sulfonyl]-isobutyl-amino}-1-benzyl-2-hydroxy-propyl)-carbamic acid hexahydrofuro[2,3-b]furan-3-yl ester] | 7.18 | 7.41 | 7.68 | 6.56 | 7.30 |  |  |  | 
CC(C)CN1CC[C@H](Nc2cc(S(=O)(=O)N(CC(C)C)C[C@@H](O)[C@H](Cc3ccccc3)NC(=O)O[C@H]3CO[C@H]4OCC[C@H]43)ccc2N)C1 (stereo in doubt) [Compound 83, (3-{[4-amino-3-(1-isobutyl-pyrrolidin-3-ylamino)-benzenesulfonyl]-isobutyl-amino}-1-benzyl-2-hydroxy-propyl)-carbamic acid hexahydro-furo-[2,3-b]furan-3-yl ester] | 7.58 | 7.12 | 8.47 | 6.89 | 7.78 |  |  |  | 
CC(C)CN(C[C@@H](O)[C@H](Cc1ccccc1)NC(=O)O[C@H]1CO[C@H]2OCC[C@H]21)S(=O)(=O)c1ccc(N)cc1 [TMC 114, (3R,3aS,6aR)-hexahydrofuro[2,3-b]furan-3-yl N-[(1S,2R)-1-benzyl-2-hydroxy-3-(N 1-isobutylsulfanilamido)propyl]carbamate, reference compound] |  |  |  |  |  | 4790 nM | 7.94 nM | 851 nM | 89.1 nM
